Experimental data reported in US10988477B2 (Merck Patent GmbH, priority 2018, dated 2021).

What follows are compounds tested against GCN2 kinase (Homo sapiens, UniProt Q9P2K8) (assay: GCN2 enzyme inhibition assay (Transcreener ADP2 fluorescence polarization)). Conditions: Enzyme activity for compounds of Formula IV; Ki(app), 280 μM ATP, 25° C.
Format: biochemical
Method: Compounds were screened for their ability to inhibit GCN2 kinase activity using a Transcreener® ADP^2 fluorescence polarization assay that detects ADP levels (BellBrook Labs, WI). Assays were carried out in a buffer consisting of 25 mM Tris-HCl (pH 7.5), 50 mM NaCl, 10 mM MgCl2 and 1 mM DTT. Final substrate concentrations were 280 μM ATP and 200 μM peptidic substrate ([…]-OH [(RS)7], Bachem, Switzerland). Assays were carried out at 25° C. in the presence of a (typical) final concentration of 4 nM GCN2 kinase. An assay buffer containing GCN2 kinase and (RS)7 was prepared. 4.7 μL of this stock solution was placed per well of a black, low volume, 384-well microtitre plate (e.g. catalogue number 3676, Corning Inc., NY). To this was added […] of DMSO containing serial dilutions of the test compound (typical final concentrations of test compound were 0 to 8 μM). The plate was incubated for 10 minutes at 25° C. prior to the addition of 4.7 μL of ATP stock buffer to initiate the enzyme reaction. The reaction was allowed to proceed for 1 hour at 25° C., prior to the addition of 10 μL detection buffer (consisting of appropriate concentrations of ADP^2 antibody and ADP Alexa633 tracer in 1× stop and detect buffer as supplied by BellBrook Labs). […] Percentage inhibition of enzyme activity was then calculated at each compound dose. IC50 and Ki(app) (using known assay and kinetic parameters) values were calculated from percentage inhibition data using a non-linear, tight-binding algorithm. All data analysis was undertaken using the Screener® software package (Genedata, Switzerland).

GCN2 kinase, sequence (Q9P2K8 whole entry): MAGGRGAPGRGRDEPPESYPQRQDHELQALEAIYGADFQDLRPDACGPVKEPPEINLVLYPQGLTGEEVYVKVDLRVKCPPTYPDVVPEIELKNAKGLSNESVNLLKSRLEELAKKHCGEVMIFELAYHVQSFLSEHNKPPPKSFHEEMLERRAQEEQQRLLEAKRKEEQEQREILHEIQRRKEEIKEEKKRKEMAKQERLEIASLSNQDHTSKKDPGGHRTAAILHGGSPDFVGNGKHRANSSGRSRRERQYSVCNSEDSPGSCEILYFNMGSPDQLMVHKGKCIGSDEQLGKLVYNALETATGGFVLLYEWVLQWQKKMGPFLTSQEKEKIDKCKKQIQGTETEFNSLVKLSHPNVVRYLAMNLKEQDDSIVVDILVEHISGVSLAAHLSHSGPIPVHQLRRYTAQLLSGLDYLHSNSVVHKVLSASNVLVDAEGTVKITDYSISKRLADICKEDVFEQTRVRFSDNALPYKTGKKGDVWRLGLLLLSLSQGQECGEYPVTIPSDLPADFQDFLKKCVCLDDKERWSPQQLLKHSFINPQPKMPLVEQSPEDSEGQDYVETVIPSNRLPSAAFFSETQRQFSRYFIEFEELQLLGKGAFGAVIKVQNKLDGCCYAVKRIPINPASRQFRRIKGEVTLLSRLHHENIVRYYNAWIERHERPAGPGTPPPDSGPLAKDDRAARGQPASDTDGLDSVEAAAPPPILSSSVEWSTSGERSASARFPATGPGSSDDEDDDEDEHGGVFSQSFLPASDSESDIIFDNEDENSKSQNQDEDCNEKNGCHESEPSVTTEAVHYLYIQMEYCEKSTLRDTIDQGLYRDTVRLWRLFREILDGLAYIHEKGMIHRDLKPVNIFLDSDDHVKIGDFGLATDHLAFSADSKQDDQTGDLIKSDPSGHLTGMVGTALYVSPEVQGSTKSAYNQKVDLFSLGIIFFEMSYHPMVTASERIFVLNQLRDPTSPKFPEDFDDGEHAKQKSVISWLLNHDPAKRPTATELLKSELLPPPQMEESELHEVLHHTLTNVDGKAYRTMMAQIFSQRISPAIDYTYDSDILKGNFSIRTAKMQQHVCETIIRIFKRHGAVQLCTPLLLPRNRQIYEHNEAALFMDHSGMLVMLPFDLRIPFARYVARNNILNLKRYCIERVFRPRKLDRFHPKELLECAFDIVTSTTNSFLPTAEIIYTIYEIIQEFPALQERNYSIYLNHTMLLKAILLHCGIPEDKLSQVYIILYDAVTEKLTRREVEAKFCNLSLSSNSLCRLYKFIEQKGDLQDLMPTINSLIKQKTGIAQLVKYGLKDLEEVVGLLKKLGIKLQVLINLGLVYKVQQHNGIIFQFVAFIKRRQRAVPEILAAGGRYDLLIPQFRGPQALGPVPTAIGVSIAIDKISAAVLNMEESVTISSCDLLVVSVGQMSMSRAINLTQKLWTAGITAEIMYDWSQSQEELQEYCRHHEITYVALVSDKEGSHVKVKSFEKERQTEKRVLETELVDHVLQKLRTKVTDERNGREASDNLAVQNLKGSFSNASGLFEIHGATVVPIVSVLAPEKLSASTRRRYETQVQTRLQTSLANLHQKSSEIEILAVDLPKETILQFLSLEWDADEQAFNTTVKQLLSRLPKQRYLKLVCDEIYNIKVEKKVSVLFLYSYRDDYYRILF

| Ki [nM] | Compound |
| --- | --- |
| 100 to 1000 | FC(F)(F)c1cn2c(-c3nccc(N4CCCC(C5CCOC5)C4)n3)cnc2cn1 (single isomer, unassigned) [IV-543, 3-(4-(3-(Tetrahydrofuran-3-yl)piperidin-1-yl)pyrimidin-2-yl)-6-(trifluoromethyl)imidazo[1,2-a]pyrazine] |
| > 1000 | O=C(N[C@H]1CCCN(c2ccnc(-c3cnc4cnc(C(F)(F)F)cn34)n2)C1)c1ccoc1 [IV-748] |
| > 1000 | N#CC1CN(c2ccnc(-c3cnc4cnc(C(F)(F)F)cn34)n2)CCO1 (stereo not shown) [IV-726] |
| 100 to 1000 | NC(C1CCCN(c2ccnc(-c3cnc4cnc(C(F)(F)F)cn34)n2)C1)C(F)(F)F (stereo not shown) [IV-503, 2,2,2-Trifluoro-1-(1-(2-(6-(trifluoromethyl)imidazo[1,2-a]pyrazin-3-yl)pyrimidin-4-yl)piperidin-3-yl)ethan-1-amine] |
| 10 to 100 | CNC(=O)c1cn2c(-c3cccc(N4CCN(C(C)=O)CC4)n3)cnc2cn1 [IV-260, 3-(6-(4-Acetylpiperazin-1-yl)pyridin-2-yl)-N-methylimidazo[1,2-a]pyrazine-6-carboxamide] |
| 100 to 1000 | FC(F)(F)c1cn2c(-c3nccc(N4CCC(c5ccccn5)C4)n3)cnc2cn1 (stereo not shown) [IV-552, 3-(4-(3-(Pyridin-2-yl)pyrrolidin-1-yl)pyrimidin-2-yl)-6-(trifluoromethyl)imidazo[1,2-a]pyrazine] |
| 100 to 1000 | Cn1nc(C2CCN(c3ccnc(-c4cnc5cnc(C(F)(F)F)cn45)n3)C2)cc1O (stereo not shown) [IV-647, 1-Methyl-3-(1-(2-(6-(trifluoromethyl)imidazo[1,2-a]pyrazin-3-yl)pyrimidin-4-yl)pyrrolidin-3-yl)-1H-pyrazol-5-ol] |
| 100 to 1000 | NC(=O)c1cn2c(-c3nccc(N4CC5(CCOC5)C4)n3)cnc2cn1 [IV-270, 3-(4-(6-Oxa-2-azaspiro[3.4]octan-2-yl)pyrimidin-2-yl)imidazo[1,2-a]pyrazine-6-carboxamide] |
| 100 to 1000 | Cn1cc(C(F)(F)F)nc1C1CCCN(c2ccnc(-c3cnc4cnc(C(F)(F)F)cn34)n2)C1 (stereo not shown) [IV-654, 3-(4-(3-(1-Methyl-4-(trifluoromethyl)-1H-imidazol-2-yl)piperidin-1-yl)pyrimidin-2-yl)-6-(trifluoromethyl)imidazo[1,2-a]pyrazine] |
| 100 to 1000 | FC(F)(F)c1cn2c(-c3nccc(N4CCNC(c5cn[nH]c5)C4)n3)cnc2cn1 (single isomer, unassigned) [IV-231, 3-(4-(3-(1H-Pyrazol-4-yl)piperazin-1-yl)pyrimidin-2-yl)-6-(trifluoromethyl)imidazo[1,2-a]pyrazine] |
| 100 to 1000 | C[C@H]1CN(c2ccnc(-c3cnc4cnc(C(F)(F)F)cn34)n2)C[C@@H](c2nc(C3CC3)no2)O1 [IV-718] |
| 100 to 1000 | CCN1C(C)CN(c2ccnc(-c3cnc4cnc(C(F)(F)F)cn34)n2)C(C)C1c1cn[nH]c1 (single isomer, unassigned) [IV-295, 3-(4-(4-Ethyl-2,5-dimethyl-3-(1H-pyrazol-4-yl)piperazin-1-yl)pyrimidin-2-yl)-6-(trifluoromethyl)imidazo[1,2-a]pyrazine] |
| < 10 | CC1C(c2cn[nH]c2)OCCN1c1nccc(-c2cnc3cnc(C(F)(F)F)cn23)n1 (stereo not shown) [IV-417, 3-Methyl-2-(1H-pyrazol-4-yl)-4-(4-(6-(trifluoromethyl)imidazo[1,2-a]pyrazin-3-yl)pyrimidin-2-yl)morpholine] |
| 100 to 1000 | Cn1nccc1C1CCCN(c2ccnc(-c3cnc4cnc(C(F)(F)F)cn34)n2)C1 (stereo not shown) [IV-655, 3-(4-(3-(1-Methyl-1H-pyrazol-5-yl)piperidin-1-yl)pyrimidin-2-yl)-6-(trifluoromethyl)imidazo[1,2-a]pyrazine] |
| 100 to 1000 | CNC(=O)C1CCN(c2ccnc(-c3cnc4cnc(C(F)(F)F)cn34)n2)C1 (stereo not shown) [IV-625, N-Methyl-1-(2-(6-(trifluoromethyl)imidazo[1,2-a]pyrazin-3-yl)pyrimidin-4-yl)pyrrolidine-3-carboxamide] |
| 100 to 1000 | CN1CCN(c2ccnc(-c3cnc4cnc(C(F)(F)F)cn34)n2)CC1 [IV-585, 3-(4-(4-Methylpiperazin-1-yl)pyrimidin-2-yl)-6-(trifluoromethyl)imidazo[1,2-a]pyrazine] |
| 100 to 1000 | O=C(CO)N1CCN(c2ccnc(-c3cnc4cnc(C(F)(F)F)cn34)n2)CC1 [IV-618, 2-Hydroxy-1-(4-(2-(6-(trifluoromethyl)imidazo[1,2-a]pyrazin-3-yl)pyrimidin-4-yl)piperazin-1-yl)ethan-1-one] |
| 100 to 1000 | CS(=O)(=O)N1CCC2(CC1)CN(c1ccnc(-c3cnc4cnc(C(F)(F)F)cn34)n1)C2 [IV-698, 3-(4-(7-(Methylsulfonyl)-2,7-diazaspiro[3.5]nonan-2-yl)pyrimidin-2-yl)-6-(trifluoromethyl)imidazo[1,2-a]pyrazine] |
| 10 to 100 | NC(=O)c1cn2c(-c3cccc(N4CCC(CO)CC4)n3)cnc2cn1 [IV-221, 3-(6-(4-(Hydroxymethyl)piperidin-1-yl)pyridin-2-yl)imidazo[1,2-a]pyrazine-6-carboxamide] |
| 100 to 1000 | OCC1CCCCN(c2ccnc(-c3cnc4cnc(C(F)(F)F)cn34)n2)C1 (stereo not shown) [IV-445, (1-(2-(6-(Trifluoromethyl)imidazo[1,2-a]pyrazin-3-yl)pyrimidin-4-yl)azepan-3-yl)methanol] |

Same assay, conditions: compounds of Formula II; 280 μM ATP, 4 nM GCN2 kinase

| Ki [nM] | Compound |
| --- | --- |
| < 10 | CS(=O)(=O)NCC1CN(c2cc(-c3cnc4ccc(C(F)F)nn34)ncn2)C[C@@H]2C[C@H](F)CN12 (stereo partly drawn) [II-568, N-(((7S,8aS)-2-(6-(6-(Difluoromethyl)imidazo[1,2-b]pyridazin-3-yl)pyrimidin-4-yl)-7-fluorooctahydropyrrolo[1,2-a]pyrazin-4-yl)methyl)methanesulfonamide] |
| 10 to 1000 | C[C@H]1C[C@@H](CS(C)(=N)=O)[C@@H](C)N(c2cc(-c3cnc4ccc(C(F)F)nn34)ncn2)C1 (stereo partly drawn) [II-605, (((2R,3R,5S)-1-(6-(6-(Difluoromethyl)imidazo[1,2-b]pyridazin-3-yl)pyrimidin-4-yl)-2,5-dimethylpiperidin-3-yl)methyl)(imino)(methyl)-λ^6-sulfanone] |
| 10 to 1000 | CS(=O)(=O)NCC1CC(C#N)CN(c2cc(-c3cnc4ccc(C(F)F)nn34)ncn2)C1 (stereo not shown) |
| 10 to 1000 | CS(=O)(=O)NC1CN(c2cc(-c3cnc4ccc(C(F)F)nn34)ncn2)CCC1(F)F (stereo not shown) [II-589, N-(1-(6-(6-(Difluoromethyl)imidazo[1,2-b]pyridazin-3-yl)pyrimidin-4-yl)-4,4-difluoropiperidin-3-yl)methanesulfonamide] |
| 10 to 1000 | CCC1CC(N=S(C)(C)=O)CN(c2cc(-c3cnc4ccc(C(F)F)nn34)ncn2)C1 (single isomer, unassigned) [II-651, ((1-(6-(6-(Difluoromethyl)imidazo[1,2-b]pyridazin-3-yl)pyrimidin-4-yl)-5-ethylpiperidin-3-yl)imino)dimethyl-λ^6-sulfanone] |
| 10 to 1000 | CS(C)(=O)=NCC1CCCN(c2cc(-c3cnc4ccc(C(F)F)nn34)ncn2)C1 (stereo not shown) [II-574, (((1-(6-(6-(Difluoromethyl)imidazo[1,2-b]pyridazin-3-yl)pyrimidin-4-yl)piperidin-3-yl)methyl)imino)dimethyl-λ^6-sulfanone] |
| 10 to 1000 | FC(F)c1ccc2ncc(-c3ccnc(N4CCCC(c5c[nH]cn5)C4)c3)n2n1 (stereo not shown) [II-749] |

Same assay, conditions: compounds of Formula IV; 280 μM ATP, 4 nM GCN2 kinase

| IC50 [nM] | Compound |
| --- | --- |
| 10 to 1000 | C[C@H]1C[C@H](c2cn[nH]c2)CN(c2ccnc(-c3cnc4cnc(C(F)(F)F)cn34)n2)C1 [IV-768, 3-(4-((3S,5R)-3-methyl-5-(1H-pyrazol-4-yl)piperidin-1-yl)pyrimidin-2-yl)-6-(trifluoromethyl)imidazo[1,2-a]pyrazine] |
